Experimental data taken from patent publication US20240299416A1, “TREATMENT OF NF-kB-MEDIATED DISEASE” (ReveraGen BioPharma, Inc., priority 2021, published 2024).

Assays:
Assay type in all cases: in vivo, human
boys with DMD = assay: VBP15-003/VBP15-LTE motor outcomes over 18 months vs CINRG DNHS; conditions: vs corticosteroid-naïve participants, ANCOVA
Excerpt: Assessments of efficacy were motor outcomes (primary outcome: time to stand from supine [TTSTAND]; secondary outcomes: time to run/walk 10 meters [TTRW], time to climb four stairs [TTCLIMB], distance covered in 6-minute walk test [6MWT], and the North Star Ambulatory Assessment [NSAA]). 6MWT and NSAA were not assessed in most CINRG DNHS participants and were not compared to vamorolone-treated participants. According to standard operating procedures, clinical evaluators were trained to harmonize the CINRG vamorolone, CINRG DNHS, and CINRG prednisone studies. Reliability of these outcomes (percent coefficient of variation) has been reported for the VBP15-002/VBP15-003 studies. Assessments were done at baseline (VBP15-002 entry), 24 weeks (VBP15-003 last visit), and 18 months (VBP15-LTE midpoint assessment at 12 months).
Only participants completing VBP15-002 and VBP15-003 were eligible to enroll in VBP15-LTE. […]
Statistical analyses were done on paired longitudinal outcome data using an analysis of covariance (ANCOVA) approach with change from baseline (VBP15-002) to month 18 (midpoint of VBP15-LTE). […] For the vamorolone-treated participants, age was calculated as (date of informed consent minus birthdate)/365.25. For the DNHS participants, age was calculated as (date of baseline visit used minus birthdate)/365.25. […]

osteocalcin, P1NP, CTX = assay: VBP15-004 bone turnover biomarkers
[1] = VBP15-002 Phase IIa multiple ascending dose PK and safety
Procedure: Vamorolone clinical studies have been conducted in adult male volunteers and boys with DMD, a disorder in which skeletal muscle is in a chronic inflammatory state. Two consecutive open-label dose-ranging studies in 48 DMD patients aged 4 to <7 years (corticosteroid-naïve) were conducted (Phase IIa, VBP15-002; Phase IIa, VBP15-003). Doses were tested over a 24-fold dose range (0.25, 0.75, 2.0, and 6.0 mg/kg/day), with 12 participants per group. The first multiple ascending dose (MAD) cohort trial-tested pharmacokinetics (PK) and safety for 2 weeks of drug dosing followed by a 2-week washout (VBP15-002). […] All DMD participants completed the MAD study and then continued on the same dose for a 24-week dose-finding (efficacy and safety) extension study (VBP15-003).
Three consecutive clinical trials of vamorolone treatment of DMD were conducted by CINRG (VBP15-002 [NCT02760264]; VBP15-003 [NCT02760277]; VBP15-LTE [NCT03038399]). A total of 48 participants (ages 4 to <7 years) were initially enrolled into VBP15-002, with trial participants completing month 12 of the 24-month VBP15-LTE study.
VBP15-002 (Phase IIa; two weeks on the drug, two weeks off drug) enrolled 48 corticosteroid-naïve participants with DMD, and all 48 participants completed the study and enrolled into VBP15-003 (Phase IIa extension; 24-week treatment). […]

For C[C@@H]1C[C@H]2[C@@H]3CCC4=CC(=O)C=C[C@]4(C)C3=CC[C@]2(C)[C@@]1(O)C(=O)CO [Vamorolone, 17α,21-dihydroxy-16α-methylpregna-1,4,9(11)-triene-3,20-dione], the “TTCLIMB, LS mean difference” value (boys with DMD) was -0.34 s, the “TTRW, LS mean difference” value (boys with DMD) was -0.84 s and the “Osteocalcin, mean (SEM) change at Week 24” value (osteocalcin, P1NP, CTX; Vamorolone 2.0 mg) was 8.3 (3.1) ng/ml. For the same compound, the “Procollagen 1 N-Terminal Propeptide (P1NP), mean (SEM) change at Week 24” value (osteocalcin, P1NP, CTX; Vamorolone 2.0 mg) was 48 (27) ng/mL, the “Type I Collagen C-Telopeptides (CTX), mean (SEM) change at Week 24” value (osteocalcin, P1NP, CTX; Vamorolone 2.0 mg) was 177 (52) pg/mL and the “Osteocalcin, difference vs. prednisone” value (osteocalcin, P1NP, CTX; Vamorolone 2.0 mg, Week 24) was 23.5 ng/mL. For the same compound, the “Procollagen 1 N-Terminal Propeptide (P1NP), difference vs. prednisone” value (osteocalcin, P1NP, CTX; Vamorolone 2.0 mg, Week 24) was 182 ng/mL, the “Type I Collagen C-Telopeptides (CTX), difference vs. prednisone” value (osteocalcin, P1NP, CTX; Vamorolone 2.0 mg, Week 24) was 477 pg/mL and the “Osteocalcin, mean (SEM) change at Week 24” value (osteocalcin, P1NP, CTX; Vamorolone 6.0 mg) was 1.7 (2.8) ng/ml. For the same compound, the “Procollagen 1 N-Terminal Propeptide (P1NP), mean (SEM) change at Week 24” value (osteocalcin, P1NP, CTX; Vamorolone 6.0 mg) was −11 (22) ng/mL, the “Type I Collagen C-Telopeptides (CTX), mean (SEM) change at Week 24” value (osteocalcin, P1NP, CTX; Vamorolone 6.0 mg) was 90 (44) pg/mL and the “Osteocalcin, difference vs. prednisone” value (osteocalcin, P1NP, CTX; Vamorolone 6.0 mg, Week 24) was 16.9 ng/mL. The “Procollagen 1 N-Terminal Propeptide (P1NP), difference vs. prednisone” value (osteocalcin, P1NP, CTX; Vamorolone 6.0 mg, Week 24) was 124 ng/mL, the “Type I Collagen C-Telopeptides (CTX), difference vs. prednisone” value (osteocalcin, P1NP, CTX; Vamorolone 6.0 mg, Week 24) was 390 pg/mL and the “effect on bone biomarkers (osteocalcin, PINP, CTX)” value (osteocalcin, P1NP, CTX; Week 24, vamorolone 2.0 and 6.0 mg/kg) was “did not decrease bone biomarkers”. For the same compound, the dose-limiting toxicities ([1]; 2 weeks dosing, 0.25-6.0 mg/kg/day) was “no dose-limiting toxicities” and the drug accumulation ([1]; day 1 vs day 14) was “no drug accumulation”.
